Measured values: ChEMBL document CHEMBL3832033, “DailyMed|setid=f21494ed-c5e8-4ddf-b140-ecd68c5c312b | CLARITHROMYCIN EXTENDED RELEASE - clarithromycin tablet, film coated, extended release|Ranbaxy Pharmaceuticals Inc”
Where “and” joins values, the source holds several entries; their conditions need not be identical. Identical values can stand only once.

Experiments:
[1] = (§1) Pharmacokinetic parameters for Clarithromycin evaluated after single oral administration of 1000 or 2 x 500 mg Clarithromycin extended-release tablets to 34 adult volunteers under fasting and feeding conditions.; type: ADME, organism-based; set-up: dose 1000 mg, dose 2 x 500, route oral; settings: human, in vivo, dosed compound id 21, dosed compound name CLARITHROMYCIN, gender male and female, regimen Single dose, tissue Plasma
[2] = test system: Homo sapiens; experiment: as §1; type: ADME, organism-based; set-up: dose 1000 mg, dose 2 x 500, route oral; settings: in vivo, po, dosed compound id 21, dosed compound name CLARITHROMYCIN, gender male and female, regimen Single dose, tissue Plasma

AUC ([1]; po, 1000 mg, dietary status Fasting, read-out: AUC(0-t)): 36600 ng·h/mL
Cmax ([1]; po, 1000 mg, dietary status Fed): 3960 ng/mL
Tmax ([1]; dietary status Fasting, dose 1000 mg, route oral): 11 h
Tmax ([2]; dietary status Fasting, dose 2 x 500 mg): 9.588 h
AUC(0-t) ([2]; dietary status Fasting): 37615.9151 ng·h/mL
Tmax ([2]; dietary status Fed, dose 1000 mg): 6.118 h
Tmax ([2]; dietary status Fed, dose 2 x 500 mg): 6.235 h
Cmax ([2]; dietary status Fed): 3478.3286 ng/mL
SMILES: CC[C@H]1OC(=O)[C@H](C)[C@@H](O[C@H]2C[C@@](C)(OC)[C@@H](O)[C@H](C)O2)[C@H](C)[C@@H](O[C@@H]2O[C@H](C)C[C@H](N(C)C)[C@H]2O)[C@](C)(OC)C[C@@H](C)C(=O)[C@H](C)[C@@H](O)[C@]1(C)O [CLARITHROMYCIN]
AUC(0-t) ([2]; dietary status Fed): 58485.5053 ng·h/mL and 60796.1185 ng·h/mL
